ChEMBL document CHEMBL5465560, “Selectivity Literature for EUbOPEN Chemogenomic Library” (2024)
One block for each compound: values may come before it.

Experiments:
[1] = biological target: Inhibitor of nuclear factor kappa-B kinase subunit alpha (Homo sapiens, UniProt O15111); test: Selectivity interaction (Kinase panel (Enzyme activity assay)) EUB0000612a CHUK
[2] = biological target: T1, Mitogen-activated protein kinase kinase kinase 15 (Homo sapiens) (UniProt Q6ZN16); test: Selectivity interaction (KinomeScan (DiscoverX)) EUB0000695a MAP3K15; conditions: at 100 nM
T1 sequence (whole entry): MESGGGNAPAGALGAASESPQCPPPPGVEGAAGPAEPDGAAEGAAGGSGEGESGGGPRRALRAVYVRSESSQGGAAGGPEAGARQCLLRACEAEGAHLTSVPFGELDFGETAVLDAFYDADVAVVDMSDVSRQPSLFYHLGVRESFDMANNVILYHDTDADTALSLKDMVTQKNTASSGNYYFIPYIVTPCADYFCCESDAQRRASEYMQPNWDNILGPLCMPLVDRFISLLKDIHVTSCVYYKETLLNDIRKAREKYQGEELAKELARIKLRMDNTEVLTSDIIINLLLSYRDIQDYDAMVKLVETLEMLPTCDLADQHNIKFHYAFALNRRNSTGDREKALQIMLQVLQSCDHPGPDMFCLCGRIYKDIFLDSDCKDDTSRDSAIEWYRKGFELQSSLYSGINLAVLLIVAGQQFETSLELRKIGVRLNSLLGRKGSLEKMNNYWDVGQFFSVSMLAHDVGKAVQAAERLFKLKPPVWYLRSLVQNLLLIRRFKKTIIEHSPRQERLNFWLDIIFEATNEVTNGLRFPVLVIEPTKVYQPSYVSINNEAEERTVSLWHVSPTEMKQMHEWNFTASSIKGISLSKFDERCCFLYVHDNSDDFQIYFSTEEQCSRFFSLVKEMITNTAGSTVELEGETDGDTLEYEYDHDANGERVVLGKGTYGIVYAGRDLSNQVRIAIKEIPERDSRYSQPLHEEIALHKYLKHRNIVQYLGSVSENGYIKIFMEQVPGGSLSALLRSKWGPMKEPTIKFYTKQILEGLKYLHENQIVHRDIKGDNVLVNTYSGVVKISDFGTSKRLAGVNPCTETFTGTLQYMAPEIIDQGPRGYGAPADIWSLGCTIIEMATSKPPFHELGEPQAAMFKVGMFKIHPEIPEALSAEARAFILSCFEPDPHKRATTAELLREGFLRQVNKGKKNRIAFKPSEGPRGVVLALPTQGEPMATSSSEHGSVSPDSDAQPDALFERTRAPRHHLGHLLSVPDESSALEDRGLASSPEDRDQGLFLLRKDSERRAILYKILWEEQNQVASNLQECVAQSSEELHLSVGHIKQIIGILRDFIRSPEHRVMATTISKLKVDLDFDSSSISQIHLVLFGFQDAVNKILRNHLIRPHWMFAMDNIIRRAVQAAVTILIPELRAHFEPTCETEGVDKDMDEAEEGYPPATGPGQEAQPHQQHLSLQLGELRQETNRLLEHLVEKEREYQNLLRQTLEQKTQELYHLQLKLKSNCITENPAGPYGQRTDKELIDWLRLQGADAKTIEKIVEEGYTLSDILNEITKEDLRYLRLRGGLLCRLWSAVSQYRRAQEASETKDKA

[3] = biological target: T2, Cyclin-G-associated kinase (Homo sapiens) (UniProt O14976); test: Selectivity interaction (KinomeScan (DiscoverX)) EUB0000655a GAK; conditions: at 10 µM
T2 sequence (whole entry): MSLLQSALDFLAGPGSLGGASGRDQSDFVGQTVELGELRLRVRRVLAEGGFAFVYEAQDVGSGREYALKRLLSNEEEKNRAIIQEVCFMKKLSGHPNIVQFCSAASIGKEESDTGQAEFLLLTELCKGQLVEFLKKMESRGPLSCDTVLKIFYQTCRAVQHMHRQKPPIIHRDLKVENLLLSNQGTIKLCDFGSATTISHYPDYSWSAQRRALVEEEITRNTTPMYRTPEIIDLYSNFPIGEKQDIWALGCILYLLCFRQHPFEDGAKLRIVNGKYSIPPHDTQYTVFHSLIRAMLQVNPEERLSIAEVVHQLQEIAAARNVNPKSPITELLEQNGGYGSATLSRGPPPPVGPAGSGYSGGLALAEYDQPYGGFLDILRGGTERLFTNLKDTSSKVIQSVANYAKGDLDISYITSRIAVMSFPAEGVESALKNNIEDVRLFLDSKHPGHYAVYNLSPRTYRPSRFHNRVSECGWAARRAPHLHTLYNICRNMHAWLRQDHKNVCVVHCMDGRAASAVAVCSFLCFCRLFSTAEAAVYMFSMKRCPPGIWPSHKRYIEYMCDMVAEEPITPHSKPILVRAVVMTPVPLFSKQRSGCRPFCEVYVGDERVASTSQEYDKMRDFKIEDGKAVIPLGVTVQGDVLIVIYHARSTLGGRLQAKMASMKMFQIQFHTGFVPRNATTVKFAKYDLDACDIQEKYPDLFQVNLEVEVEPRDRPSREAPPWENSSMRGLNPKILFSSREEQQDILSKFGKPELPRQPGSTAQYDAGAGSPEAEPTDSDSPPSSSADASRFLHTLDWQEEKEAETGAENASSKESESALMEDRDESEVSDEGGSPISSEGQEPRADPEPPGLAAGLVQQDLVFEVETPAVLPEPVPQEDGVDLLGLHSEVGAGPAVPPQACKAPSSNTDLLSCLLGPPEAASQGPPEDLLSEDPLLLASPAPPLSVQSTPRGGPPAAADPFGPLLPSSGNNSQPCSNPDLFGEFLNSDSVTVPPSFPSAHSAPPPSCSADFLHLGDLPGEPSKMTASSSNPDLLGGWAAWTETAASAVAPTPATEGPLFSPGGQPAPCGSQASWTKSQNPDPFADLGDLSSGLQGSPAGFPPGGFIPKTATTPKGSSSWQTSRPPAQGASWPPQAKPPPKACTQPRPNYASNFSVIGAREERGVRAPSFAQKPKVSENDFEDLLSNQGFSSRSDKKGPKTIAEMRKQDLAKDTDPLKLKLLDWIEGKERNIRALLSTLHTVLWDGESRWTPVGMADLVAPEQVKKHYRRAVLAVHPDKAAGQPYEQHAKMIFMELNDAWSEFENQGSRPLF

[4] = biological target: Serine/threonine-protein kinase PLK2 (Homo sapiens, UniProt Q9NYY3); test: Selectivity interaction (SelectScreen profiling (Invitrogen)) EUB0000607a PLK2; conditions: at 2 µM
Chain of Serine/threonine-protein kinase PLK2 (Q9NYY3 whole entry, looked up): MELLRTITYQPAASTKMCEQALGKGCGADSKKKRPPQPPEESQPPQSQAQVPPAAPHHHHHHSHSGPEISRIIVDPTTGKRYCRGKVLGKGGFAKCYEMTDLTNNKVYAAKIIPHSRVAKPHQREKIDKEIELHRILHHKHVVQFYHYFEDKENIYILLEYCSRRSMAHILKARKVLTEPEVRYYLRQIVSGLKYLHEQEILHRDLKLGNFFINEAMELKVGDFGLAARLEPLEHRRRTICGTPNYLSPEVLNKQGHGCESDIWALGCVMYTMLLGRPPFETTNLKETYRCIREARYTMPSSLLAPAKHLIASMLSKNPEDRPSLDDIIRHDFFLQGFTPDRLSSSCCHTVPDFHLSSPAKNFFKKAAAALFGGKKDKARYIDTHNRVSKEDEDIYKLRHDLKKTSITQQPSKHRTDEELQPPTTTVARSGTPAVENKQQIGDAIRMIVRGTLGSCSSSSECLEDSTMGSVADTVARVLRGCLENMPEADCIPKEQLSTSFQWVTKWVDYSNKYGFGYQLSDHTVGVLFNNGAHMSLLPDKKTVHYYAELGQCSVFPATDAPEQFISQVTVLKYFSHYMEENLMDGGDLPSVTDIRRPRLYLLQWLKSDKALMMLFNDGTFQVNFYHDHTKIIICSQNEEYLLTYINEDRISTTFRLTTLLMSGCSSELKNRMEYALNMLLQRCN

Chain of Inhibitor of nuclear factor kappa-B kinase subunit alpha (O15111 whole entry): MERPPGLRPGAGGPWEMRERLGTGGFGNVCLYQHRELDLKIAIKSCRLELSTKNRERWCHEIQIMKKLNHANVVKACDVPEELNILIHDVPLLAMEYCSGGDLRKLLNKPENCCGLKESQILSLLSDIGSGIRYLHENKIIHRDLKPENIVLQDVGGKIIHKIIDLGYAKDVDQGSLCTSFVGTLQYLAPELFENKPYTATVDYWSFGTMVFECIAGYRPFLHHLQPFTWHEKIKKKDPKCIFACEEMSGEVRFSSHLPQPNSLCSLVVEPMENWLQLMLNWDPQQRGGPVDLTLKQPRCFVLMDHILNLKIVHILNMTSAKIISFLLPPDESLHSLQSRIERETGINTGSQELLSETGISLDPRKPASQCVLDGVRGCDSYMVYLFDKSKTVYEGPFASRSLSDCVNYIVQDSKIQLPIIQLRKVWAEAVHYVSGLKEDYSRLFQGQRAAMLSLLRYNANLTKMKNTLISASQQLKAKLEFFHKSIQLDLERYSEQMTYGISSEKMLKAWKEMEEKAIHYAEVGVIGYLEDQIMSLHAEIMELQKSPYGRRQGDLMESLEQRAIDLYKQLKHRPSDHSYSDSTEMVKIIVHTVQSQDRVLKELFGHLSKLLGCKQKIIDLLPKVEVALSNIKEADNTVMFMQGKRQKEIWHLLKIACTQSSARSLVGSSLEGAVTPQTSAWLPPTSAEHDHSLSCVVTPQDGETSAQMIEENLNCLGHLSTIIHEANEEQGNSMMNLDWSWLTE

- IC50 [1]: > 10 µM
Structure (SMILES): CCc1cccc(CC)c1NC(=O)c1nn(C)c2c1CCc1cnc(Nc3ccc(C(=O)NC4CCN(C)CC4)cc3OC(F)(F)F)nc1-2

Structure (SMILES): Cc1cc(F)c(C(=O)Nc2cccc(-c3nncn3C(C)C)n2)cc1-n1cnc(C2CC2)c1
- % of control [2]: 66%

Structure (SMILES): CN(C)CCOc1ccc(-c2nc(-c3ccncc3)c(-c3ccc4c(c3)CC/C4=N\O)[nH]2)cc1
- % of control [3]: 25%

Structure (SMILES): CNC(=O)Nc1ccc(-c2nc(N3CC4CCC(C3)O4)c3cnn(C4CCC5(CC4)OCCO5)c3n2)cc1
- % of inhibition [4]: 1%
